According to patent US11590117B2, “Treatment of a hematologic malignancy with 2-(4-chlorophenyl)-n-((2-(2,6-dioxopiperidin-3-yl)-1-oxoisoindolin-5-yl)methyl)-2,2-difluoroacetamide” (priority 2016, dated 2023):

Tested on: OCI-AML3
Assay: Annexin V/7-AAD flow cytometry apoptosis assay
Type: cell-based, human
Conditions: OCI-AML3 (Compound 1-insensitive AML line)
Procedure: Cell Apoptosis Assays: The ability of Compound 1 to induce apoptosis was assessed in selected AML cell lines and healthy PBMCs at the time points and compound concentrations indicated. For Annexin V/7-AAD readout by flow cytometry, AML cell lines were plated into flat bottom 96-well plates (BD Falcon) at a seeding density of 0.1 to 0.3×10^6 cells per mL in 200 μL complete media. Compound 1 was dispensed onto the plates and the cells were incubated for the times indicated. For frozen PBMCs, cells were thawed as previously described and plated at a seeding density of 1×10^6 cells per mL in 200 μL on Corning® BioCoat™ T-Cell Activation Anti-Human CD3 96-well plates (Corning Inc., Corning, N.Y.). Compound 1 was dispensed onto the plates and the cells were incubated for the times indicated. […] One hundred microliters of Annexin V/7-AAD buffer was added per well and the cells incubated for 15 minutes before being analyzed using the Attune Flow Cytometer (Life Technologies, Carlsbad, Calif.). For caspase 3/7 activity, the remaining 100 μL was incubated with CellEvent™ Caspase-3/7 Green ReadyProbes® Reagent (1:1000 dilution; Molecular Probes) for 15 minutes before being analyzed using the Attune Flow Cytometer. […]
Compound 1 Induces Apoptosis in Acute Myeloid Leukemia Cell Lines. […] 0.01 μM and 0.1 μM and apoptosis was assessed over time.

Compound: O=C1CCC(N2Cc3cc(CNC(=O)C(F)(F)c4ccc(Cl)cc4)ccc3C2=O)C(=O)N1 (stereo not shown) [Compound 1, 2-(4-chlorophenyl)-N-((2-(2,6-dioxopiperidin-3-yl)-1-oxoisoindolin-5-yl)methyl)-2,2-difluoroacetamide]
- induction of apoptosis: did not induce apoptosis
